Three compounds from US9927437B2, “Treating neurodegenerative disease” (THE BRIGHAM AND WOMEN'S HOSPITAL, INC., priority 2013, dated 2018) can be followed below.

For data set [1], the system named is Ly6C^high monocytes. Nature of the data set: Viability assay, monocytes. It counts as cell-based, mouse. The conditions noted are these: 1 h pre-treatment, 3 h.
For data set [2], the system named is astrocytes. Nature of the data set: mRNA expression in astrocytes isolated from EAE NOD mice (nCounter, qPCR). It counts as in vivo, mouse. The protocol:
Mononuclear cells were isolated from the CNS as previously described^50 with minor modifications. Naïve and EAE mice were euthanatized, and then subjected to perfusion through the left ventricle with ice-cold sterile PBS. Brains and spinal cord were then removed, minced and enzymatically dissociated with 0.05% (w/v) collagenase type III (Worthington Biochemical), 0.5% Dispase II (Roche Applied Science), 40 μg/ml DNAse I, 20 mM HEPES in HBSS) for 30 min at 37 C to make a suspension of single cells. Enzymes were inactivated with 20 ml of Ca^2+/Mg^2+-free HBSS containing 2 mM EDTA and 20 mM HEPES. The digested tissue was triturated and passed through a […] cell strainer. Cells were centrifuged and resuspended in 30% isotonic Percoll (GE Healthcare) and 40 μg/ml DNAse I, underlined by 70% isotonic Percoll, and centrifuged at 1000×g at 4° C. for 25 min. Cells were collected from the 70%-30% interphase, and sorted by FACS Aria.
These purification procedures are based on previously described dissociation and purification protocols^50,51. Isolated CNS cells, were incubated with anti-Mouse CD16/CD32 for 15 min on ice to block the Fc receptors, and stained with fluorochrome-conjugated antibody for CD11b (M1/70), CD45(90), CD3 (145-2C11), CD4 (GK1.5), and Ly6C (HK1.4), and Biotion-conjugated GSL I—isolectin B4 (Vector labs), CD105 (N418), CD140a (APA5), CD11c (N418), F4/80 (BM8), O4 (O4, Miltenyi Biotec), and CD19 (eBio1D3), and un-conjugated antibodies recognizing mouse MOG (8-18C5, Millipore), O1 (O1), and Galactocerebroside (mGlaC, Millipore). All antibodies were from Ebioscience, unless otherwise mentioned (clone number, when relevant, in parentheses). Cells were washed and incubated PE-conjugated Streptavidin and R-Phycoerythrin AffiniPure F(ab′)2 fragment of Goat Anti-Mouse IgG+IgM (H+L) (Jackson ImmunoResearch laboratories) for 20 min at 4 C in the dark. Cells were washed, incubated with 7-AAD or Fixable Viability Dye eFluor® 450 (if cells were to be used for intracellular staining), for exclusion of dead cells (FIG. S3A), and sorted as following. Microglia were sorted as CD11b^+ cells with low CD45 expression and low Ly6C (CD11b+/CD45^low/Ly6C^low), while the inflammatory monocytes were considered as CD11b^+/Ly6C^high 52. T-cells were sorted as CD3^+CD4^+ cells. Astrocytes were isolated following the depletion of lymphocytes, microglia, monocytes (FIG. S3B), and oligodendrocytes, and lymphocytes (T-cells, B-cells, and NK cells) (FIG. S3C). […] We confirmed that we had isolated a relatively pure populations of astrocytes by qPCR for the astrocyte markers^44,51 gfap, aldh1l1 and aqp4, and found them to be exclusively expressed in the astrocyte fraction (in a similar expression pattern to that of GFP^+ astrocytes sorted from Tg(GFP-hGFAP) FVB transgenic mice^49) (FIG. S3E). We used an additional cohort of markers to explore for presence of immune cells [microglia/monocytes cells—itgam (CD11b), and emr1 (F4/80), dendritic cells—itgax (CD11c), NK cells—Klrb1c (Nk1.1), T-cells—cd3, and B-cells—cd19], oligodendrocytes (mog, mbp), and neurons (syt1, snap25) (FIG. S3F, G).
100-200 ng of total RNA was hybridized with reporter and capture probes for nCounter Gene Expression code sets (Mouse Inflammation Kit, or a custom made astrocyte-oriented probe set (Table S1)), according to manufacturer's instructions (NanoString Technologies). Data were normalized to spiked positive controls and housekeeping genes (nSolver Analysis system). Transcript counts less than the mean of the negative control transcripts plus 2 standard deviations for each sample were considered background.
Nanostring generated gene expression data were analyzed by use of the Expander 6.06 platform^53. Genes were clustered using the unbiased CLICK algorithm, and each cluster was further analyzed for enrichments in transcription factors binding sites (promoter analysis).

For the compound `CCCCCCCCCC(=O)N[C@H](CN1CCOCC1)[C@H](O)c1ccccc1` [PDMP, D-threo-1-phenyl-2-decanoylamino-3-morpholino-1-propanol], the “viability of purified Ly6C^high monocytes” value in data set [1] is reported as “did not affect”. For the same compound, in data set [2] (NOD EAE progressive phase), the “expression of demyelination-associated genes in astrocytes” value is given as “significant reduction” and the “expression of remyelination-associated genes in astrocytes” value was “increased expression”. In addition, in data set [2] (NOD EAE progressive phase (day 100), qPCR), the “expression of representative cluster 2 genes (ccl2, ccl5, cxcl10, il1b, nos2, opn, H2-Aa, vim) in astrocytes” value is “suppressive effects”. The “irf1 and relB expression in astrocytes” value in data set [2] (NOD EAE, qPCR) was “subsequent suppression”.

Regarding “shB4galt6: lentivirus-delivered shRNA against b4galt6 (TRCN0000334278; SEQ ID NO:3) (guide CGATGGACTGAACAATTTATTCTCGAGAATAAATTGTTCAGTCCACG)”, the “b4galt6 and b4galt5 expression in astrocytes” value in data set [2] (NOD EAE, i.c.v. lentivirus at day 35, qPCR) is given as “astrocyte-specific knock-down”. The “csf2 expression in astrocytes” value in data set [2] (chronic NOD EAE, 10 days after i.c.v. shRNA lentivirus) is on record as “significant decrease”.

For lactosylceramide [LacCer], the “viability of purified Ly6C^high monocytes” value in data set [1] is recorded as “did not affect”.
